Data as given in PMC12668310, “High‐Throughput Synthesis and Screening of a Cyanimide Library Identifies Selective Inhibitors of ISG15‐Specific Protease mUSP18” (Angewandte Chemie (International Ed. in English), 2025).

Assays:
[1] = biological target: T1, human USP18/ISG15 interaction (Homo sapiens, UniProt Q9UMW8); assay: NanoBRET assay, hUSP18/ISG15 interaction in HEK293T cells
T1 sequence (Q9UMW8 1-372): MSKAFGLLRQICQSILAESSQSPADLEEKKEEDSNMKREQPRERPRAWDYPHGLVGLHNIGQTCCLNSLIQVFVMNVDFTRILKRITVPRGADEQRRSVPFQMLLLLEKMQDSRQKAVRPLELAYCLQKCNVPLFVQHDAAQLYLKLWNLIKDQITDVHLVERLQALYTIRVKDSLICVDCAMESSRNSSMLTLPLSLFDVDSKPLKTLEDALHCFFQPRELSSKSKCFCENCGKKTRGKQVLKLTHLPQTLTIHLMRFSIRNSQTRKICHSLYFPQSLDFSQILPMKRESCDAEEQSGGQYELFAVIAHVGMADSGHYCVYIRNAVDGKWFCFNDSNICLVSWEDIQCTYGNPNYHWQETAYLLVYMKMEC
Protocol: We tested whether our USP18 activity inhibitor could also affect USP18's nonenzymatic function using our recently developed NanoBRET assay to monitor the interactions of USP18 with STAT2 and ISG15.^[ [43] ^]
normalised to the DMSO control and inhibition was assessed by fitting the data to a dose-
Data are shown as mean ± SD from one biological replicate with
three technical replicates.
Transient NanoBRET assays were performed
following the manufacturer’s instructions (Promega). Briefly, HEK293T cells were transfected
with NanoLuc and HaloTag fusion vectors at 1:100 ratio (20 ng NanoLuc and 2 µg HaloTag
plasmid). After approx. 20 h, cells were harvested, resuspended in phenol red–free Opti-MEM
media supplemented with 4% FCS, and plated in white, flat-bottom, 96-well tissue culture
Immediately before signal detection,
NanoBRET Nano-Glo substrate (Promega) was added, and luminescence was recorded using
nm (HaloTag acceptor). The corrected NanoBRET ratio (mBU) was calculated by dividing the
acceptor signal by the donor signal and subtracting the background signal obtained from the

mUSP18 [2] = biological target: T2, mUSP18 (Mus musculus, UniProt Q9WTV6); assay: kinact/KI determination (kobs plot); format: biochemical, murine
T2 construct: (46-368); His-tag (N); made in house
T2 sequence (Q9WTV6 46-368): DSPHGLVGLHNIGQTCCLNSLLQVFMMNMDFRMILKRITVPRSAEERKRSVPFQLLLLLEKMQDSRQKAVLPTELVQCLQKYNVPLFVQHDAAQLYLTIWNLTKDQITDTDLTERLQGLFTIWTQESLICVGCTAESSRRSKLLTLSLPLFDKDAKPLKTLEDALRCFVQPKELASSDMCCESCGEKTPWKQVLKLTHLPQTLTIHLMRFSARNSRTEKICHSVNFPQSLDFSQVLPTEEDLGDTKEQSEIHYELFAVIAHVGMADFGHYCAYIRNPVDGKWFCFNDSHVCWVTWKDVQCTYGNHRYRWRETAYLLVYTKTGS

mUSP18 [3] = biological target: T2, mUSP18; assay: Covalent complex formation, intact protein mass spectrometry; format: binding, murine; settings: 1.4 μM mUSP18, 14 µM compound, 30 min
Protocol: We further explored the potential of our mUSP18 hits. […] Based on previous data, these cyanimides likely bind to mUSP18 in a covalent manner. Indeed, intact protein mass spectrometry analysis confirmed the formation of a covalent stoichiometric mUSP18‐BB07CA902 complex, showing a mass difference of 311 Da, which corresponds to the addition of exactly one molecule of BB07CA902 (Figures 5c, S9). […] (Figure S9).
High-throughput screening
The screens were performed at room temperature in “flat bottom, non-treated, black […]
µM. The compounds (10 nL each) were transferred from the 1 mM daughter plates to the […]
Four wells containing DMSO
(10 nL) and four wells containing NEM (10 mM final concentration) were used in each plate […]
The percentage inhibition was calculated for each well using the […]
Where FIx is the fluorescence intensity of each well, FIpos is the average fluorescence intensity of the positive (NEM) control wells, and FIneg is the average fluorescence intensity of the negative (DMSO) control wells. […]
Samples were then diluted 3-fold with water and analyzed by mass spectrometry by injecting 2 μL into a Waters XEVO-G2 XS Q-TOF mass spectrometer equipped with an electrospray ion source in positive mode (capillary voltage 1.2 kV, desolvation gas flow 900 L/h, T = 60 °C) with a resolution of R = 26,000. […]

**Q.** With `Cc1cc(C(=O)N[C@H]2C[C@@H]3CN(C#N)C[C@@H]3C2)ccc1C(C)C` [BB07CA902] as the compound, how does the “inhibition of hUSP18/ISG15 interaction” value [1] read?
**A.** did not observe any inhibition

**Q.** What about the kinact/KI (mUSP18 [2]) of the same compound?
**A.** 4650 M⁻¹ s⁻¹

**Q.** What about the “mass difference of covalent stoichiometric mUSP18-inhibitor complex” value (mUSP18 [3]) of the same compound?
**A.** 311 Da
